Assays:
CD11b marked macrophage = test: CD11b immunochemical staining of retina, chronic intraocular pressure increase model; assay type: in vivo, rat
Procedure: (§1) 0.05 cc/50 g of Tiletimine and Zolazepam-mixed medicament (Zoletil) and Xylazine (Rompum) were mixed at a ratio of 1:1 and then administered to 20 rats by intramuscular injection, thereby anesthetizing the rats. A limbus periphery was divided into four portions, each of which was then subjected to 2 mm dissection at an interval of 90 degrees, and then, two radial conjunctival excisions were performed on upper dissection periphery. […] After surgical isolation of vein, the vein was lifted up by using 3 mm-width spatula to be spaced apart from the peripheral tissue, and then, was subjected to electric ablation while being careful for the peripheral tissue not to have any thermal damage or any mechanical damage due to contact. Intraocular pressure was consecutively measured three or more times by using Tonopen (Solan, Fla., USA), and only reliable intraocular pressure values within 5 percentile were recorded. […] Before the operation, and 3 days, and 1, 2, 4, and 8 weeks after the operation, intraocular pressure was measured, and the rats were sacrificed to extract eyes therefrom, which were then subjected to tissue examination and immunechemical staining with respect to Brn-3a and CD11b, and a reverse transcription polymerase chain reaction was used to measure CD11b value in retinal tissue. […]

retinal ganglion cell = test: Retinal ganglion cell density on H-E staining, chronic intraocular pressure increase model; assay type: in vivo, rat; details: 8 weeks after the injury
Procedure: as §1

[1] = test system: nitric oxide (NO) concentration in aqueous humor; test: NO concentration in aqueous humor after instillation (Griess assay); assay type: in vivo, rat; details: 1 hour after the initial instillation, 50 μg/ml, day-time and night-time test, rank among instillation groups
Procedure: Normal rat models were divided into 4 groups, each group consisting of 6 rats, that is, 12 eyes, and at 8 AM and 8 PM, each group was instilled with angiogenin 50 μg/ml, angiogenin fragment 50 μg/ml, and latanoprost 50 μg/ml, and 1, 3, and 6 hours after instillation, 15 to 20 μl of aqueous humor was extracted from two rats, that is, 4 eyes for each group. For the extraction of aqueous humor, first, rats were anesthetized, and then, corneal dissection was performed in a direction from at 9 o'clock outside each eye toward microkeratome, and then, a capillary tube was brought into contact through a dissection wound to absorb aqueous humor, which was then moved to an eppendroff tube and frozen-preserved at a temperature of −70 degrees. Thereafter, nitric oxide (NO) concentration in aqueous humor was measured by Griess assay (nitric oxide colorimetric assay kit, Biovision, USA). The aqueous humor was diluted 10 times and then mixed with the same amount of griess solution and reacted together for 10 minutes. The reaction product was moved onto a well plate and then, absorbance of nitrate, which is a NO formation reactant, was measured by using spectrophotometer at a wavelength of 540 nm and compared with a reference value to quantify the nitrate.

normal white rat = test: Intraocular pressure change due to instillation in normal white rats (day-time and night-time); assay type: in vivo
Procedure: (§2) White rats were grouped as a physiological saline solution instillation group, an angiogenin (recombinant human angiogenin, R&D systems, USA) 50 μg/ml instillation group, an angiogenin fragment (angiogenin 108-122, SEQ ID NO: 1, BACHEM, USA) instillation group, and a latanoprost 50 μg/ml instillation group, and each group consisted of 6 rats, that is, 12 eyes. Instillation test was repeatedly performed on normal rats and glaucoma model rats. Ophthalmic agent was administered at 8 AM and 8 PM in an amount of 4 μl to compare day-time effects and night-time effects, and 1, 3, 6, 9, 12, and 24 hours after the instillation, intraocular pressure was measured.

glaucoma white rats = test: Intraocular pressure change due to instillation in glaucoma white rats (day-time and night-time); assay type: in vivo, rat
Procedure: Male white rats were used to prepare an episcleral venous ablation glaucoma model. The rat was anesthetized and a limbus periphery was divided into four portions, each of which was then subjected to 2 mm dissection at an interval of 90 degrees, and then, two radial conjunctival excisions were performed on upper dissection periphery. […] Episcleral vein is distinguishable because it is located […] than extra ocular muscle, has relatively low fluidity and a relatively large diameter, contains darker blood in vessel, and is connected to peripheral venous plexus. After surgical isolation of vein, the vein was lifted up by using 3 mm-width wooden spatula to be spaced apart from the peripheral tissue, and then, was subjected to electric ablation while being careful for the peripheral tissue not to have any thermal injury or any mechanical injury due to the contact. After the operation, a chloramphenical ophthalmic agent was administered thereto. Intraocular pressure was consecutively measured three or more times by using Tonopen (Solan, Fla., USA), and only reliable intraocular pressure values within 5% or less were recorded. Only used were rats that had higher intraocular pressure than that before the operation by 5 mmHg or more when measured on the first day, the third day, one week and two weeks before and after operation.
Also, steroid-induced glaucoma model was prepared as follows: 1% prednisolone was instilled twice a day in an amount of 4 μl for 30 days, and only rats that had higher intraocular pressure by 5 mmHg or more before operation were used.
as §2

angiogenin: recombinant human angiogenin (R&D systems); 14.4 kDa single chain protein of 123 amino acids, a ribonuclease inducing angiogenesis
distribution of CD11b marked macrophage in retinal ganglion layer (CD11b marked macrophage): highly frequently distributed | density of retinal ganglion cell (retinal ganglion cell): does not change | NO concentration increase in aqueous humor [1]: greatest NO concentration increase | time after instillation up to which significant intraocular pressure reduction was maintained (normal white rat; day-time instillation): up to 9 hours | time after instillation at which average intraocular pressure began to significantly decrease (normal white rat; day-time instillation, 50 μg/ml): 1 h | intraocular pressure reduction compared to the pre-instillation intraocular pressure (normal white rat; day-time instillation, 50 μg/ml 4 μl, maintained up to 9 hours after the instillation): −1.8±0.4 mmHg | time after instillation up to which significant intraocular pressure reduction was maintained (normal white rat; night-time instillation): up to 24 hours | intraocular pressure reduction compared to that before instillation (normal white rat; night-time instillation, 50 μg/ml, maintained up to 24 hours after the instillation): −1.5±0.4 mmHg | intraocular pressure reduction (in words) (normal white rat; night-time instillation, 1 hour after the instillation): significant intraocular pressure reduction | time after instillation up to which significant intraocular pressure reduction effects were retained (glaucoma white rats; day-time instillation test): up to 6 hours | time after instillation up to which intraocular pressure reduction effects were retained (glaucoma white rats; night-time instillation): up to 12 hours
